Values of other authors in publication PMC2674521 (Journal of pharmaceutical sciences, 2009).
Like-named read-outs stand apart in the source and are kept apart here.

Key:
HSA = conditions: cited from earlier work
[1] = no reference given; cited from earlier work
RSA = conditions: ref 46; cited from earlier work

SMILES: CC1(C)S[C@@H]2[C@H](NC(=O)Cc3ccccc3)C(=O)N2[C@H]1C(=O)O [Benzylpenicillin]
- affinity constant for the IIA site of HSA (HSA; ref 10): 1200 M⁻¹
- affinity (Ka) for the IIA site of HSA (HSA; ref 40-42): 1200 M⁻¹
- affinity for site IIA of HSA (Ka) (HSA; reference not given): 1200 M⁻¹
- extent of protein binding in human plasma [1]: 50%

SMILES: Cn1nnnc1SCC1=C(C(=O)O)N2C(=O)[C@@H](NC(=O)[C@H](O)c3ccccc3)[C@H]2SC1 [Cephmandole]
- binding to HSA (Ka) (HSA; ref 32): 1200 M⁻¹

SMILES: NS(=O)(=O)c1cc(C(=O)O)c(NCc2ccco2)cc1Cl [Furosemide]
- binding to RSA (RSA): ≤ 99.1%

SMILES: CC(C)Cc1ccc(C(C)C(=O)O)cc1 (stereo not drawn) [Ibuprofen]
- affinity (Ka) for the IIIA site of HSA (HSA; ref 10): 2.7e+06 M⁻¹
- affinity for the IIIA site of HSA (Ka) (HSA; reference not given): 2.7e+06 M⁻¹

SMILES: N[C@@H](Cc1c[nH]c2ccccc12)C(=O)O [L-tryptophan]
- affinity (Ka) for the IIIA site of HSA (HSA; ref 29-31): 10000 M⁻¹
